These results are taken from US20100137373A1, “PESTICIDAL COMPOSITION COMPRISING A STR[…] AN I[…]” (priority 2007, published 2010).

One test has as its system Myzus persicae. Kind of test: Myzus persicae test (cabbage leaf dip, mortality). Type of test: in vivo. The conditions noted are these: foliar, 96 h, single compound, infested cabbage leaves dipped, after 4 d. How it is done: (§1) The expected efficacy of a given combination of two compounds is calculated as follows (see Colby, S. R., “Calculating Synergistic and antagonistic Responses of Herbicide Combinations”, Weeds 15, pp. 20-22, 1967):
(§2) X is the efficacy expressed in % mortality of the untreated control for test compound A at a concentration of m ppm respectively m g/ha,
(§3) Y is the efficacy expressed in % mortality of the untreated control for test compound B at a concentration of n ppm respectively n g/ha,
(§4) E is the efficacy expressed in % mortality of the untreated control using the mixture of A and B at m and n ppm respectively m and n g/ha,
(§5) If the observed insecticidal efficacy of the combination is higher than the one calculated as “E”, then the combination of the two compounds is more than additive, i.e., there is a synergistic effect.
(§6) Solvent: 7 parts by weight of dimethylformamide
(§7) Emulsifier: 2 parts by weight of alkylaryl polyglycolether
To produce a suitable preparation of active compound, 1 part by weight of active compound is mixed with the stated amount of solvent and emulsifier, and the concentrate is diluted with emulsifier-containing water to the desired concentration. […]
After the specified period of time, the mortality in % is determined. […]

For another test, the system named is Phaedon cochleariae. The experiment in a line: Phaedon cochleariae test (cabbage leaf dip, larvae mortality). The test is classed as in vivo. The following applies: foliar, 96 h, single compound, dipped cabbage leaves infested with larvae, after 4 d. How it is done:
as §1, §2, §3, §4, §5, §6, §7
To produce a suitable preparation of active compound, 1 part by weight of active compound is mixed with the stated amount of solvent and emulsifier, and the concentrate is diluted with emulsifier-containing water to the desired concentration.
Cabbage leaves (Brassica oleracea) are treated by being dipped into the preparation of the active compound of the desired concentration and are infested with larvae of the mustard beetle (Phaedon cochleariae) as long as the leaves are still moist.
After the specified period of time, the mortality in % is determined. 100% means that all the beetle larvae have been killed; 0% means that none of the beetle larvae have been killed.

What is called mortality is the percentage killed. On to `CC1=CC(O/C=C2/C(=O)OC3c4ccccc4CC23)OC1=O` (centres unmarked) [Compound A], for which the mortality at 3e-06 ppm with Myzus persicae (0.000003 ppm) and in the test with Phaedon cochleariae (0.000003 ppm) was 0% throughout. Moreover, the mortality at 3e-05 ppm in the test on Phaedon cochleariae (0.00003 ppm) was determined as 0%.
Regarding `O=[N+]([O-])NC1=NCCN1Cc1ccc(Cl)nc1` [Imidacloprid, reference compound], in the test on Myzus persicae (0.16 ppm), the mortality at 0.16 ppm is 10%. The mortality at 20 ppm in the test with Phaedon cochleariae (20 ppm) came to 70%.
